Source: patent publication EP0170121A1, “2-Hydroxy-3-aryloxypropyl or 2-hydroxy-2-benzofuranyl ethyl tertiary amine having an anti-hyperglycaemic and/or anti-obesity activity” (BEECHAM GROUP PLC, priority 1984, dated 1986)
Counter-ions that a name gives are not always drawn. Marks after values point to notes of the source that are not given here.

Experiments:
Type in all cases: in vivo
[1] = system: Female CD1 mice; assay: Effect on energy expenditure of mice (oxygen consumption, oral dosing); details: p.o. in water, percentage of the rate of energy expenditure of the mice dosed with water, dose differs per compound (Dose mg/kg p.o.); for Mean Energy Expenditure (0-3h): 0-3h after dosing; for Mean Energy Expenditure (0-21h): 0-21h after dosing
Protocol: Female CD1 mice each weighing approximately 24 g were given food and water ad lib before and during the experiment. The compounds were dissolved in water and these solutions were administered orally to each of 12 mice. A further 12 mice were dosed orally with water. The mice were placed in groups of threes in boxes through which air was drawn and the oxygen content of the air leaving the boxes was measured. The energy expenditure of the mice was calculated for 3 and 21 hours after dosing from the volume of air leaving the boxes and its oxygen content, following the principles described by J.B. de V. Weir, J. Physiol. (London) 109, 1-9 (1949). The results are expressed as a percentage of the rate of energy expenditure of the mice dosed with water.

[2] = system: Male Sprague-Dawley rats; assay: Effect on energy expenditure of rats (oxygen consumption, oral dosing); details: deprived of food, p.o. in water, percentage of the rate of energy expenditure of the rats dosed with water, dose differs per compound (Dose mg/kg p.o.); for Mean Energy Expenditure (0-3h): 0-3h after dosing; for Mean Energy Expenditure (0-21h): 0-21h after dosing
Protocol: Male Sprague-Dawley rats each weighing between 170-200 g were deprived of food for 16 hours before, and during the experiment. Water was provided ad lib at all times. The compounds were administered orally in water to 3 or 4 rats. A further 4 rats were dosed orally with water. The rats were placed in boxes through which air was drawn and the oxygen content of the air leaving the boxes was measured. The energy expenditure of the rats was calculated for 3 hours and for 21 hours after dosing from the volume of air leaving the boxes and its oxygen content, following the principles described by J.B. de V. Weir, J. Physiol. (London) 109, 1-9 (1949). The results are expressed as a percentage of the rate of energy expenditure of the rats dosed with water.

[3] = system: Female CFLP mice; assay: Hypoglycaemic activity: subcutaneous glucose load, area under blood glucose curve; details: female CFLP mice fasted 24 hours; compound orally 30 minutes before glucose 1 g/kg s.c.; 2 hour period; versus control mice given water; dose differs per compound (Dose µmol/kg)
Protocol: Female CFLP mice, weighing approximately 25 g, were fasted for 24 hours prior to the study. The compounds under study were administered orally as an aqueous solution to each of 6 mice. 30 minutes later a blood sample (20 µl) was obtained from the tail for the analysis of blood glucose. Immediately after taking this blood sample, glucose (1 g/kg body weight) was administered subcutaneously to each mouse. 6 mice were given water as a control. Blood samples were then obtained from each mouse at 30 minute intervals for 120 minutes.
Compounds that produced a significant (p<0.05) reduction of blood glucose, compared with control mice given water, at any time interval, were considered active. The area under the blood glucose curve over the 2 hour period after the administration of the glucose was calculated for each compound and compared with the value for control animals.

SMILES | Mean Energy Expenditure (0-3h) [1] | Mean Energy Expenditure (0-21h) [1] | Mean Energy Expenditure (0-3h) [2] | Mean Energy Expenditure (0-21h) [2] | % Reduction in Area under Blood Glucose Curve [3]
COC(=O)c1ccc(C[C@@H](C)N(C[C@@H](O)COc2ccccc2)C[C@@H](O)COc2ccccc2)cc1 [Example 2, Methyl 4-[(R)-2-[bis-[(R)-2-hdroxy-3-penoxypropyl]amino]propyl]benzoate, fumarate] | 122 percentage | 97 percentage | 114 percentage | 100 percentage | –
CNC(=O)c1ccc(C[C@@H](C)N(C[C@H](O)COc2ccccc2)C[C@H](O)COc2ccccc2)cc1 [Example 3, N-Methyl 4-[(R)-2-[bis-[(S)-2-hydrpxy-3-phenoxypropyl]amino]propyl]benzamide, fumarate] | 133 percentage | 109 percentage | 114 percentage | 100 percentage | 12%
COC(=O)c1ccc(C[C@@H](C)N(C[C@@H](O)COc2ccccc2)C[C@H](O)c2ccccc2)cc1 [Example 5, Methyl 4-[(R)-2-[N-[(R)-2-hydroxy-2-phenethyl]-N-[(R)-2-hydroxy-3-phenoxypropyl]amino]propyl]benzoate hydrochloride] | 136 percentage | 112 percentage | – | – | 38%
CNC(=O)c1ccc(C[C@@H](C)N(C[C@H](O)COc2ccccc2)C[C@H](O)c2ccccc2)cc1 [Example 6, N-Methyl 4-[(R)-2-[N'-[(R)-2-hydroxy-2-phenethyl]-N'-[(S)-2-hydroxy-3-phenoxypropyl]amino]propyl]benzamide] | 126 percentage | 110 percentage | 112 percentage | 108 percentage | 13%
CNC(=O)c1ccc(C[C@@H](C)N(C[C@@H](O)COc2ccccc2)C[C@H](O)c2ccccc2)cc1 [Example 7, N-Methyl 4-[(R)-2-[N'-[(R)-2-hydroxy-2-phenethyl]-N'-[(R)-2-hydroxy-3-phenoxypropyl]amino]propyl]benzamide] | 119 percentage | 102 percentage | – | – | 18%
COC(=O)c1ccc(C[C@@H](C)N(CC(O)c2cc(Cl)c(N)c(Cl)c2)C[C@H](O)COc2ccccc2)cc1 (stereo partly drawn) [Example 10, Methyl 4-[(R)-2-[N-[2-(4-amino-3,5-dichlorophenyl]-2-hydroxyethyl]-N-[(S)-2-hydroxy-3-phenoxypropyl]amino]propyl benzoate] | 121 percentage | 122 percentage | – | – | 31%
C[C@H](CCc1ccc(C(N)=O)cc1)N(C[C@H](O)COc1ccccc1)C[C@H](O)c1ccccc1 [Example 12, 4-[(R)-3-[N-(R)-2-Hydroxy-2-phenethyl-N-[(S)-2-hydroxy-3-phenoxypropyl]amino]butyl]benzamide] | 111 percentage | 103 percentage | 139 percentage | 113 percentage | 28%
Br.C[C@H](CCc1ccc(C(N)=O)cc1)N(C[C@H](O)COc1ccccc1)C[C@H](O)COc1ccccc1.O.O [Example 13, 4-[(R)-3-[Bis-[(S)-2-hydroxy-3-phenoxypropyl]amino]butyl]-benzamide, hydrobromide, dihydrate] | 103 percentage | 105 percentage | 108 percentage | 106 percentage | 15%
C[C@H](Cc1ccc(OCC(N)=O)cc1)N(C[C@H](O)COc1ccccc1)C[C@H](O)c1cccc(Cl)c1 [Example 19, 4-[(R)-2-[N-[(R)-2-(3-Chlorophenyl)-2-hydroxyethyl]-N-[(S)-2-hydroxy-3-phenoxypropyl]amino]propyl]phenoxyacetamide, hydrochloride, hemihydrate] | – | – | 120 percentage | 106 percentage | 43%
CCOC(=O)COc1ccc(CC[C@@H](C)N(C[C@H](O)COc2ccccc2)C[C@H](O)c2ccccc2)cc1 [Example 21, Ethyl 4-[(R)-3-[N-[(R)-2-hydroxy-2-phenethyl]-N-[(S)-2-hydroxy-3-phenoxypropyl]amino]butyl]phenoxyacetate, hydrochloride] | – | – | 110 percentage | 107 percentage | –
C[C@H](Cc1ccc(OCCO)cc1)N(C[C@H](O)COc1ccccc1)C[C@H](O)c1ccccc1 [Example 22, 4-[(R)-2-[N-[(R)-2-Hydroxy-2-phenethyl]-N-[(S)-2-hydroxy 3-phenoxypropyl]amino]propyl]phenoxyethanol, hydrochloride, hemihydrate] | – | – | 120 percentage | 107 percentage | –
COC(=O)COc1ccc(C[C@@H](C)N(C[C@H](O)COc2ccccc2)C[C@H](O)c2ccccc2)cc1 [Example 24, Methyl 4-[(R)-2-(N-[(R)-2-hydroxy-2-phenethyl]-N-[(S)-2-hydroxy-3-phenoxypropyl]amino]propyl]phenoxyacetate, hydrochloride, hemihydrate] | – | – | 146 percentage | 122 percentage | –
C[C@H](COc1ccc(OCC(N)=O)cc1)N(C[C@H](O)COc1ccccc1)C[C@H](O)c1ccccc1 [Example 25, 4-[(R)-2-[N-[(R)-2-Hydroxy-2-phenethyl]-N-[(S)-2-hydroxy-3-phenoxypropyl]amino]propoxy]phenoxyacetamide, hydrochloride] | – | – | 126 percentage | 115 percentage | –
CCOC(=O)COc1ccc(C[C@@H](C)N(CC(O)c2cc3ccccc3o2)C[C@H](O)COc2ccccc2)cc1.Cl (stereo partly drawn) [Example 26, Ethyl 4-[(R)-2-[N-[2-(2-benzofuranyl)-2-hydroxyethyl]-N-[(S)-2-hydroxy-3-phenoxypropyl]amino]propyl]phenoxyacetate, hydrochloride] | – | – | 142 percentage | 117 percentage | 34%
CCOC(=O)COc1ccc(C[C@@H](C)N(CC(O)c2cc3ccccc3o2)C[C@H](O)c2ccccc2)cc1 (stereo partly drawn) [Example 27, Ethyl 4-[(R)-2-[N-[(R)-2-hydroxy-2-phenethyl]-N-[2-(2-benzofuranyl)-2-hydroxyethyl]amino]propyl]phenoxyacetate hydrochloride] | – | – | 134 percentage | 114 percentage | –
C[C@H](Cc1ccc(OCC(N)=O)cc1)N(C[C@@H](O)COc1ccccc1)C[C@H](O)c1ccc(O)cc1 [Example 28, 4-[(R)-2-[N-[(R)-2-Hydroxy-2-(4-hydroxyphenyl)ethyl]-N-[(R)-2-hydroxy-3-phenoxypropyl]amino]propyl]phenoxyacetamide] | – | – | 131 percentage | 117* percentage | –
COC(=O)COc1ccc(CC(C)N(CC(O)COc2ccccc2)CC(O)c2cc(Cl)c(N)c(Cl)c2)cc1 (stereo not shown) [Example 29, Methyl 4-[2-[N-[2-(4-amino-3,5-dichlorophenyl)-2-bydroxy-ethyl]-N-[2-hydroxy-3-phenoxypropyl]amino]propyl]phenoxyacetate, hemifumarate] | – | – | 131 percentage | 122* percentage | –
CC(Cc1ccc(OCC(N)=O)cc1)N(CC(O)COc1ccccc1)CC(O)c1cc(Cl)c(N)c(Cl)c1 (stereo not shown) [Example 30, 4-[2-[N-[2-(4-Amino-3,5-dichlorophenyl)-2-hydroxyethyl]-N-[2-hydroxy-3-phenoxypropyl]amino]propyl]phenoxyacetamide] | – | – | 129 percentage | 116* percentage | –
